Laboratory results: ChEMBL document CHEMBL1159209, “Antineoplastic agents, 294. Variations in the formation of pancratistatin and related isocarbostyrils in Hymenocallis littoralis” (J Nat Prod, 1995)
Active and inactive are the calls of the source. The rule behind the calls is not given here.

What was measured:
P388 = assay: In vivo cytotoxicity against mouse P388 cells; format: functional, organism-based
M5076 = assay: In vivo cytotoxicity against mouse M5076 cells; format: functional, organism-based

## O=C1N[C@H]2[C@H](O)[C@H](O)[C@@H](O)[C@H](O)[C@@H]2c2cc3c(c(O)c21)OCO3
P388
  Activity: Active
M5076
  Activity: Active
